Source: article PMC11211886 (Frontiers in Pharmacology, 2024)

Legend:
OCT2 = target: T1, OCT2 (Homo sapiens, UniProt O15244); assay: OCT2 inhibition, metformin uptake in transfected HEK293 cells
T1 sequence (O15244 1-555): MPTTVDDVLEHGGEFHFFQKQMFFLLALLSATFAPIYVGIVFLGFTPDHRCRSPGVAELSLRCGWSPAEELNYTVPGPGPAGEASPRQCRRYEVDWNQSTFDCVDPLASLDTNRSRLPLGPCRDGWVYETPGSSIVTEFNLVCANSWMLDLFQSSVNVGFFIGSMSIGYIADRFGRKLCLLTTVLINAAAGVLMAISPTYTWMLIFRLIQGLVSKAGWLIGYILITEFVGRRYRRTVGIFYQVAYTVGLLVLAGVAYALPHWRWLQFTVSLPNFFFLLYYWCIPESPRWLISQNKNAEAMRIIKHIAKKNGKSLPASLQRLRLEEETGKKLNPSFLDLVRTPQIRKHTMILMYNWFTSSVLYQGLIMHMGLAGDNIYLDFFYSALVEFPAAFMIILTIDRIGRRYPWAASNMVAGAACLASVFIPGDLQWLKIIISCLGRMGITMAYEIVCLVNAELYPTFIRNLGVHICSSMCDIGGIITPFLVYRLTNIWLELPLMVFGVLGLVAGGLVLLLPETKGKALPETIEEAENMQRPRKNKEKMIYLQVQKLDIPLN
Experimental: The pre-incubation solutions were removed, and incubation solutions containing the inhibitors and probe substrates (or transport buffer containing an equal volume of vehicle control and probe substrates) were added and incubated at 37°C for 2 min (5 min for OATP1B3). The probe substrate for OAT1 was 4-aminohippuric acid (10 μM), for OAT3 was estrone 3-sulfate (10 μM), for OCT2 was metformin (100 μM), for OATP1B1 was β-estradiol 17-(β-D-glucuronide) (5 μM), for OATP1B3 was β-estradiol 17-(β-D-glucuronide) (10 μM), and for MATE1 and MATE2-K was tetraethylammonium (10 μM). After incubation, cells were washed three times with ice-cold transport buffer (25 mM HEPES, pH 7.4, pH 8.0 for overexpressing MATE1 and MATE2-K HEK293 cells) and lysed in distilled water. The concentrations of probe substrates were determined by LC-MS/MS, and a BCA Kit (Solarbio ®Life Sciences, Beijing, China) was used to determine the protein content in the cell lysate.
where C is the concentration of the drug in the cell lysate (nM), P is the protein concentration of the cell lysate (mg/mL), and T is the incubation time (minute). Uptake ratetest compound is the uptake rate of the substrate in the presence of the test compound. Uptake ratevehicle control is the uptake rate of the substrate in the presence of the vehicle control. Uptake ratepassive is the uptake rate of the substrate in the presence of the positive inhibitor at the top test concentration.

plasma proteins [1] = assay: Plasma protein binding (RED), dog plasma; type: in vitro ADME
Experimental: (§1) The plate containing plasma and buffer was equilibrated for 6 h in a 37°C water shaking bath. After incubation, aliquots of buffer and plasma (20 µL) on both sides were collected and precipitated using organic solvents. […] The post-dialysis recovery of amdizalisib was also measured.

CYP2D6 = target: T2, CYP2D6 (Homo sapiens, UniProt P10635); assay: Time-dependent CYP inhibition in HLM, CYP2D6; type: in vitro ADME; conditions: 10 μM, 30 min pre-incubation with NADPH
T2 construct: tissue Life Technologies (Durham, NC, USA); host or cells: human liver microsomes
T2 sequence (P10635 whole entry): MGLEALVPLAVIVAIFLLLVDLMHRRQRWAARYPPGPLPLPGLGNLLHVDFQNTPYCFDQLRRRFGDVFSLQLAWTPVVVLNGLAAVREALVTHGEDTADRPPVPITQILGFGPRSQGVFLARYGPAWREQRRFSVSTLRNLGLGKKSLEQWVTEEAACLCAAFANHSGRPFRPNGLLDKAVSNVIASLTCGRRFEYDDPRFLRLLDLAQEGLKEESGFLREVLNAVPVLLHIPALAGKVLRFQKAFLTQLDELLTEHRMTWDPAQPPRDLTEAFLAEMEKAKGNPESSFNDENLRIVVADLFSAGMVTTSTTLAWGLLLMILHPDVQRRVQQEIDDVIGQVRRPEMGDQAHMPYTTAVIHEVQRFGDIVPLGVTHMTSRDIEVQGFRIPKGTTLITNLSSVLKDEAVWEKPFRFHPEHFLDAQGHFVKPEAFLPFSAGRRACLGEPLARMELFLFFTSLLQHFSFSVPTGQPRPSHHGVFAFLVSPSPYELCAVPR
Experimental: (§2) The procedure of time-dependent CYP inhibition was similar to that used for CYP reversible inhibition, as mentioned above, except that a pre-incubation step was added. […] Another appropriate volume of the NADPH-regenerating system and probe substrate were added to initiate the CYP isoform enzyme activity test step. For this step, the incubation period was 10 min, except for CYP2B6, CYP2C8, and CYP3A4/5 (probe substrate: midazolam), which was 3 min to make sure the reaction was under initial linear rates. After incubation for the designated time periods at 37°C, the ice-cold acetonitrile containing IS was added to quench the reaction. […] (Ainactivator/[…] represents the enzyme activity remaining due to the inhibition by the diluted inactivator in the enzyme activity test step, and (Ainactivator/[…] represents the remaining enzyme activity due to pre-incubation loss plus inhibition by the diluted inactivator in the enzyme activity test step.

plasma proteins [2] = assay: Plasma protein binding (RED), human plasma; type: in vitro ADME
Experimental: as §1

[3] = Plasma protein binding (RED), human plasma; type: in vitro ADME; conditions: mouse, rat, dog, monkey, human, plasma, pH 7.4; all species, all cases (data not shown); read-out: post-dialysis recovery
Experimental: as §1

[4] = parameters: method as in Cao et al., 2023; conditions: single oral 30 mg, high-fat diet, ref Cao et al., 2023, cited from earlier work
CYP2C19 = target: T3, CYP2C19 (Homo sapiens, UniProt P33261); assay: Time-dependent CYP inhibition in HLM, CYP2C19; type: in vitro ADME; conditions: 10 μM, 30 min pre-incubation with NADPH
T3 construct: tissue Life Technologies (Durham, NC, USA); host or cells: human liver microsomes
T3 sequence (P33261 whole entry): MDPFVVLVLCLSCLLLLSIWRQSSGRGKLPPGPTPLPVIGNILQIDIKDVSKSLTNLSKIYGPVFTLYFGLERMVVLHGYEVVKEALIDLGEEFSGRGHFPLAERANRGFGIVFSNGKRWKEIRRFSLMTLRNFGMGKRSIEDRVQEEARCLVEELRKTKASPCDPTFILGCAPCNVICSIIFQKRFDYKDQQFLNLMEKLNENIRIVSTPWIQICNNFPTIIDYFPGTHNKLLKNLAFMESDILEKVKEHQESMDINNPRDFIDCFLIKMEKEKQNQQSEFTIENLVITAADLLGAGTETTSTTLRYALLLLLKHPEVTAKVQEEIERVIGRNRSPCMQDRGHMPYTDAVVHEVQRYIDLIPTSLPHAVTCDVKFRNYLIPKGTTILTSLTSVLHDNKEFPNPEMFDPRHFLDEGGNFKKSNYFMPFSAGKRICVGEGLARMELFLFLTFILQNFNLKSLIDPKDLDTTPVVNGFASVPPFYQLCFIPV
Experimental: as §2

[5] = Amdizalisib remaining/concentration after the last incubation in hepatocyte induction assays; conditions: for Amdizalisib concentration: CYP2C induction assay; for percentage of amdizalisib remaining: 5 h after last incubation
Experimental: […] […] […] Enzyme activity for each CYP isoform was reported as a fold change over vehicle control and the percent of positive control (detailed calculation in Supplementary 1.1). Hepatocytes were harvested with a lysis buffer from RNeasy 96 Kit (Qiagen Inc., Germantown, MD, USA) to isolate RNA, which was analyzed by real-time quantitative polymerase chain reaction (RT-PCR). […] Emax (the maximal observed induction) and EC50 (the concentration that supports half-maximal induction) were estimated by non-linear regression of fold increase in CYP mRNA expression versus concentration plots.

plasma proteins [6] = assay: Plasma protein binding (RED), mouse plasma; type: in vitro ADME
Experimental: as §1

Structure (SMILES): C[C@H](Nc1ncnc(N)c1C#N)c1cc2ncc(Cl)n2nc1-c1ccccc1 [Amdizalisib]
- IC50 (OCT2): > 100 µM
- calculated R value (OCT2) (OCT2): < 1.1
- Percentage transported (OCT2; OCT2, compound 0.3 μM): 98.7%
- Uptake rate (OCT2; OCT2, compound 0.3 μM): 772±136 pmol/mg protein/min
- Percentage transported (OCT2; OCT2, compound 1 μM): 93.3%
- Uptake rate (OCT2; OCT2, compound 1 μM): 733±47.7 pmol/mg protein/min
- Percentage transported (OCT2; OCT2, compound 3 μM): 95.1%
- Uptake rate (OCT2; OCT2, compound 3 μM): 746±13.4 pmol/mg protein/min
- Percentage transported (OCT2; OCT2, compound 10 μM): 92.7%
- Uptake rate (OCT2; OCT2, compound 10 μM): 728±32.8 pmol/mg protein/min
- Percentage transported (OCT2; OCT2, compound 30 μM): 108%
- Uptake rate (OCT2; OCT2, compound 30 μM): 839±49.9 pmol/mg protein/min
- Percentage transported (OCT2; OCT2, compound 100 μM): 50.8%
- Uptake rate (OCT2; OCT2, compound 100 μM): 429±46.2 pmol/mg protein/min
- inhibition at 2 min, 0.3 µM (OCT2; human, pH 7.4): 1.28%
- inhibition at 2 min, 1 µM (OCT2; human, pH 7.4): 6.72%
- inhibition at 2 min, 3 µM (OCT2; human, pH 7.4): 4.92%
- inhibition at 2 min, 10 µM (OCT2; human, pH 7.4): 7.34%
- inhibition at 2 min, 30 µM (OCT2; human, pH 7.4): -8.07%
- inhibition at 2 min, 100 µM (OCT2; human, pH 7.4): 49.2%
- Binding fraction to plasma proteins, Dog (plasma proteins [1]; 0.1 µM): 87.7 ± 5.15%
- Binding fraction to plasma proteins, Dog (plasma proteins [1]; 1 µM): 89.1 ± 0.83%
- Binding fraction to plasma proteins, Dog (plasma proteins [1]; 20 µM): 88.8 ± 0.69%
- activity loss of CYP2D6 (CYP2D6): less than 10%
- Binding fraction to plasma proteins, Human (plasma proteins [2]; 0.1 µM): 94.0 ± 0.86%
- Binding fraction to plasma proteins, Human (plasma proteins [2]; 1 µM): 92.8 ± 0.54%
- Binding fraction to plasma proteins, Human (plasma proteins [2]; 20 µM): 92.4 ± 0.15%
- stability in plasma post-incubation (plasma proteins [2]; all species, 37°C 6 h (data not shown)): > 90%
- fraction unbound at 6 h (plasma proteins [2]; plasma, pH 7.4, all species (mouse, rat, dog, monkey, human), 0.1–20 μM): ~0.1
- recovery at 6 h [3]: > 90%
- median Tmax ([4]; Chinese healthy volunteers): 4 h
- effect of food on extent of oral absorption (AUC) [4]: no significant effect
- reduction of geometric mean of Cmax after food intake [4]: 36%
- activity loss of CYP2C19 (CYP2C19): less than 10%
- Amdizalisib concentration ([5]; nominal 3 µM, donor eight, 1h): 3.57 ± 0.26 µM
- Amdizalisib concentration ([5]; nominal 3 µM, donor four, 1h): 3.38 ± 0.33 µM
- Amdizalisib concentration ([5]; nominal 20 µM, donor eight, 1h): 23.3 ± 0.27 µM
- Amdizalisib concentration ([5]; nominal 20 µM, donor eight, 4h): 21.2 ± 2.3 µM
- Amdizalisib concentration ([5]; nominal 20 µM, donor eight, 24h): 21.9 ± 0.27 µM
- percentage of amdizalisib remaining ([5]; donor seven, 30 µM): 105.3%
- percentage of amdizalisib remaining ([5]; donor two, 10 µM): 105.8%
- percentage of amdizalisib remaining ([5]; donor two, 30 µM): 104.3%
- Binding fraction to plasma proteins, Mouse (plasma proteins [6]; 1 µM): 91.5 ± 1.01%
- Binding fraction to plasma proteins, Mouse (plasma proteins [6]; mouse, 6 h, 0.1 µM, pH 7.4): 91.1 ± 0.95%
- Binding fraction to plasma proteins, Mouse (plasma proteins [6]; mouse, 6 h, 20 µM, pH 7.4): 91.3 ± 0.89%
